The test system of assay [1] is Arabidopsis thaliana afb5‐1 mutant line. The assay is classed as in vivo. The following applies: for GR50 (DW % of NT): dry weight at 14 DAT; for Resistance ratio (afb5‐1 vs WT), DW: ratio of dry weight GR50 values; for Resistance ratio (afb5‐1 vs WT), DW / Resistance ratio (afb5‐1 vs WT), visual injury: foliar application; for Resistance ratio (afb5‐1 vs WT), visual injury: ratio of visual injury GR50 values. As to the method:
(§1) Bioassays were carried out with the model species Arabidopsis thaliana. The wild type (WT) Col‐0 line was compared to an afb5‐1 mutant line in a Col‐0 background containing a missense mutation of R609K.[11] A. thaliana seeds were sown on Metro‐mix 360 potting mix (Sungro Horticulture) supplemented with vermiculite and stratified for 3 days at 4 °C in the dark. Flats were moved to a growth chamber (as above) and a plastic lid was placed on the flat. On germination, the lid was removed. After 2 weeks in the growth chamber, seedlings were transplanted into 3‐in. pots with Metro‐mix 360 potting mix and moved to a greenhouse. The greenhouse was maintained at a day/night temperature of 23/22 °C and supplemented with light to complete a 16 h photoperiod. Plants were allowed to recover from transplanting for 1 week prior to applications. A. thaliana seedlings were sprayed with test compounds at five rates with four replications. Tests included nontreated and solvent check controls. Individual compound doses varied and were based on plate test data or anecdotal potency. Compounds were formulated as technical material and were initially dissolved in 1 part 97:3 (v/v) acetone: dimethylsufoxide (DMSO) followed by 5 parts 1.5% (v/v) Agridex crop oil concentrate in distilled water to give a final concentration of 1.25% (v/v) Agridex. Formulated compounds were sprayed at a volume of 187 L ha^−1 at a spray height of 43 cm above the plants with an overhead Mandel track sprayer set with 8002 E Tee jet nozzle. Plants were treated at rosette stage just prior to or at initiation of bolting. After spray application, plants were allowed to dry then moved back to the greenhouse. Plants were grown in the greenhouse (same conditions as above) for 2 weeks until harvest. Visual injury/growth reduction observations were made at 7 and 14 days after treatment (DAT) and scored where 0% = no growth reduction and 100% = complete growth reduction or plant death. At 14 DAT the plants were harvested and dried to collect dry weight (DW) biomass.
(§2) The data collected in the foliar application of compounds generated a measure of sensitivity or dose response. The data was analyzed by regression in JMP 10.0 and fit to a nonlinear exponential three parameter fit model:
(§3) where a is the asymptote, b is the scale and c is the rate of growth. The model was used to determine the herbicidal dose that caused 50% reduction in growth (GR50). GR50 values were compared between mutant and WT to give an indication of fold resistance over WT (Table 3). A log‐logistic model[24] was also used to fit the data and gave similar GR50 values with greater standard errors without changing the pattern of responsiveness.

Assay [2] deals with T1, AtTIR1 (Arabidopsis thaliana, UniProt Q570C0).
T1 construct: His10 (N, cleaved yes); eGFP (N, cleaved yes); FLAG (N, cleaved yes); made in house; host or cells: baculovirus; Trichoplusia ni Hi5 cells (virus generated in Sf9)
Nature of the assay: biochemical. The assay is classed as binding. As to the method: (§4) Auxin binding assays using surface plasmon resonance (SPR) were performed on a Biacore 2000 as described previously.[3], [18], [23] Protein was stored on ice and protein concentrations were assayed by A280 nm measurement (nanodrop, Thermo Scientific). Briefly, AtAux/IAA7 degron peptide was immobilized on streptavidin‐coated SPR chips, and binding was measured in the presence of IAA or auxin analogue by recruitment of the TIR1/AFB protein from solution as the co‐receptor complex formed on the chip. Kinetic analyses were performed by single cycle kinetics on a Biacore T200 (Cytiva Life Sciences), titrating compounds against a fixed concentration of TIR1 before injection. The degron peptide density on the chips was controlled so that R max < 300 Response UNits (RU).

Assay [3] deals with T2, AtAFB5 (Arabidopsis thaliana, UniProt Q9LTX2).
T2 construct: His10 (N, cleaved yes); eGFP (N, cleaved yes); FLAG (N, cleaved yes); made in house; host or cells: baculovirus; Trichoplusia ni Hi5 cells (virus generated in Sf9)
Nature of the assay: biochemical. The assay is classed as binding. As to the method:
as §4

In assay [4] the target is T3, AtAFB2 (Arabidopsis thaliana, UniProt Q9LW29).
T3 construct: His10 (N, cleaved yes); eGFP (N, cleaved yes); FLAG (N, cleaved yes); made in house; host or cells: baculovirus; Trichoplusia ni Hi5 cells (virus generated in Sf9)
Nature of the assay: SPR single cycle kinetics, AtAFB2. The assay is classed as binding. As to the method: as §4

For assay [5], the system named is Arabidopsis thaliana afb5‐1 seedlings. The experiment in a line: Root growth inhibition bioassay, afb5‐1 mutant. The assay is classed as in vivo. As to conditions: afb5‐1 vs WT dose-response, 8 days. As to the method:
(§5) A. thaliana seed was surface sterilized in 10 mL of 50% bleach and two drops of Tween‐20 for 12 min and rinsed six times with sterile water. Sterile growth media consisted of half‐strength Murashige and Skoog salts supplemented with 0.4% agar and 0.8% sucrose. In a laminar flow hood, 8 mL of liquid media was transferred to sterile test‐tubes placed in a heat block to maintain media in a liquid state. Compounds were previously diluted in 50/50 DMSO/water to a known molar concentration. A 50‐μL aliquot of diluted compound was added to each tube to give a specified final concentration, normally 10, 1, 0.1, 0.01 or 0.001 μM. A single tube was treated with solvent only as a control. Test compounds were mixed into the media by pipetting up and down three times, then 6 mL of media with test compound was added to one well in a six‐well plate, working from low‐to‐high concentration, and allowed to solidify in the laminar flow hood. Approximately 15 sterilized seeds were placed on the solidified surface and the remaining 2 mL of liquid media was added to cover and disperse seeds. Plates were sealed with paraffin and moved to a Conviron growth chamber set to 60% humidity, 25 °C and light intensity 100 μE m^2 s^−1 with a 16 h photoperiod. After 8 days primary root measurements of five random plants were taken by removing plants from media and measuring with a ruler. Treatments were compared against the solvent control to determine percentage root growth inhibition. Each experiment was run twice and averages were combined for analysis.

For assay [6], the target named is T2, AtAFB5. The experiment in a line: SPR relative binding (co-receptor complex formation with Aux/IAA7 degron), AtAFB5. As to conditions: 50 μM compound; for % of IAA binding: normalized to IAA = 100%. As to the method: as §4
Assay [7] addresses T3, AtAFB2. The experiment in a line: SPR relative binding (co-receptor complex formation with Aux/IAA7 degron), AtAFB2. As to conditions: 50 μM compound; for % of IAA binding: normalized to IAA = 100%. How it is done:
as §4

Assay [8] concerns the target T1, AtTIR1. The experiment in a line: SPR relative binding (co-receptor complex formation with Aux/IAA7 degron), AtTIR1. The following applies: 50 μM compound; for % of IAA binding: normalized to IAA = 100%. As to the method:
as §4

In assay [9] the test system is Arabidopsis thaliana wild type (WT) Col‐0. Nature of the assay: Foliar efficacy bioassay, wild type. It is filed as in vivo. The following applies: foliar application; for GR50 (DW % of NT): dry weight at 14 DAT. As to the method: as §1, §2, §3
Assay [10] deals with Arabidopsis thaliana Col‐0 seedlings. Nature of the assay: Root growth inhibition bioassay, wild type. It is filed as in vivo. The following applies: 8 days, up to 10 μM. As to the method:
as §5, with “Treatments were compared against the solvent control to determine percentage root growth inhibition. Each experiment was run twice and averages were combined for analysis.” left out

Where [11] appears, read: averaged equilibrium dissociation constant, SPR single cycle kinetics, read-out: Ave KD.

Where two headings read alike, the source gives them in different places.

T2 sequence (Q9LTX2 whole entry, other chains not shown): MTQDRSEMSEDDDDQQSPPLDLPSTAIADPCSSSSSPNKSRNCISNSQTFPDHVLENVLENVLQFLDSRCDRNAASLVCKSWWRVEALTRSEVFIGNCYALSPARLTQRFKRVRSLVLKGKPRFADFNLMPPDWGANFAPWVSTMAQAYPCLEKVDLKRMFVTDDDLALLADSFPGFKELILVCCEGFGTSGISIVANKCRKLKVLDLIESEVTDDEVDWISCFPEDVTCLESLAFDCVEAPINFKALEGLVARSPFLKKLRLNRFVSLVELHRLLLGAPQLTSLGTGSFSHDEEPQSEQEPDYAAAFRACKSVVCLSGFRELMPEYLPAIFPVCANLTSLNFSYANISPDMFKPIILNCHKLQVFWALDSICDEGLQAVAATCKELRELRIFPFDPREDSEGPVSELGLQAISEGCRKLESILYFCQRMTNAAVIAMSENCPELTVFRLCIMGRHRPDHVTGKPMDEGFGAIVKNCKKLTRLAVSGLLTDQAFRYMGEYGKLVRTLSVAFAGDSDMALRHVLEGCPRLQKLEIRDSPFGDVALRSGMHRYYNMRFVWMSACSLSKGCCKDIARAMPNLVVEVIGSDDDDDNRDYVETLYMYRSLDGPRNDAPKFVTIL
T2 sequence (Q39255 whole entry partner, other chains not shown): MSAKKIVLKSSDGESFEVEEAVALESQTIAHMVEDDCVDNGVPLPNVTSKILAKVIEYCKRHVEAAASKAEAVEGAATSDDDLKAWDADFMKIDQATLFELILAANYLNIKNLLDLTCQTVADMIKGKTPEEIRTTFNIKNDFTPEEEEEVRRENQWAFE
T3 sequence (Q9LW29 whole entry, other chains not shown): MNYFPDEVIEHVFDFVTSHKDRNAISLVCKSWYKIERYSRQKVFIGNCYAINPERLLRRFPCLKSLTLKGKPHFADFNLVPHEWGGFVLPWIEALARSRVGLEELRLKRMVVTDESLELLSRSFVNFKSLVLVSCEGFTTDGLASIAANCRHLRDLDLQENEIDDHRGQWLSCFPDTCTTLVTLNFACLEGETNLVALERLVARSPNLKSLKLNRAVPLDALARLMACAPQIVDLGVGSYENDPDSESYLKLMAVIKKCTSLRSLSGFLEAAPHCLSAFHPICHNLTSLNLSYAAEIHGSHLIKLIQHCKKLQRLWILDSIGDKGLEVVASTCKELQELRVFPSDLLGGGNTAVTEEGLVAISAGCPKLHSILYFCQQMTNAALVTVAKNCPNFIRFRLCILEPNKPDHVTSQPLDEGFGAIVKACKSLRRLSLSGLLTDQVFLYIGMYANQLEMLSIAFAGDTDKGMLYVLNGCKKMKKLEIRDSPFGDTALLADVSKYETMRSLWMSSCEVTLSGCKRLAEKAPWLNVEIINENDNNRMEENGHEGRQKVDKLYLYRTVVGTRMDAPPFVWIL
T3 sequence (Q39255 whole entry partner, other chains not shown): as the sequence (Q39255 whole entry partner, other chains not shown) above
T1 sequence (Q570C0 whole entry, other chains not shown): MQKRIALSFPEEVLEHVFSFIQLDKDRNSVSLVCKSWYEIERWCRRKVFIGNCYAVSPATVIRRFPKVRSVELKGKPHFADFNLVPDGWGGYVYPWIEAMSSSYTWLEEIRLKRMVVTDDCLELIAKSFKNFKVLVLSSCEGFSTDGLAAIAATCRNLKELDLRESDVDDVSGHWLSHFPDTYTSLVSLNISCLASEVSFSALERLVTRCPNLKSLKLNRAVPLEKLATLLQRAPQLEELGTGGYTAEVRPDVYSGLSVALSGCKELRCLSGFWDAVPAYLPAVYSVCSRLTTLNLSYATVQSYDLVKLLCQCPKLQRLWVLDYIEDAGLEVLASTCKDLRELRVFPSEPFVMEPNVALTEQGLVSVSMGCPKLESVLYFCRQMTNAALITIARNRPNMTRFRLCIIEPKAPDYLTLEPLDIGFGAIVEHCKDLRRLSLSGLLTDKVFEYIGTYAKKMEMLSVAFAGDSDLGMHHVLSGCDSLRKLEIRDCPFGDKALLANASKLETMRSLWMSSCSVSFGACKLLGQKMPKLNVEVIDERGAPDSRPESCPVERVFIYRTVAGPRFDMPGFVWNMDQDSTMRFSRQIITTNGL
T1 sequence (Q39255 whole entry partner, other chains not shown): as the sequence (Q39255 whole entry partner, other chains not shown) above

By Kd is commonly meant the free concentration of one partner at which half of the binding sites on the other are occupied at equilibrium, for simple one-to-one binding. `O=C(O)COc1ccc(Cl)cc1Cl` [2,4‐D, 2,4‐dichlorophenoxyacetic acid]: the “GR50 (DW % of NT)” value stood at 9.9 g ai ha^−1 in assay [1] (afb5‐1, foliar application) and 3.9 g ai ha^−1 in assay [9]. Besides, the “GR50 (visual injury)” value in assay [1] (afb5‐1, foliar application) worked out at 40.5 g ai ha^−1; in assay [9], 19.2 g ai ha^−1. In addition, the “Resistance ratio (afb5‐1 vs WT), DW” value in assay [1] was 2.5. For the same compound, the “Resistance ratio (afb5‐1 vs WT), visual injury” value in assay [1] came to 2.1. For the same compound, the Kd at AtTIR1 [2] was determined as 229 µM; on AtAFB5 [3] it was 152 µM; at AtAFB2 [4], 392 µM. For the same compound, the “Resistance of afb5‐1 in root growth inhibition (in words)” value in assay [5] was “No resistance”. The “% of IAA binding” value turned out to be 40% at AtAFB5 [6], 22% on AtAFB2 [7] and 29% on AtTIR1 [8].

On to `COc1c(Cl)ccc(-c2cc(N)c(Cl)c(C(=O)O)n2)c1F` [Halauxifen], for which the “GR50 (DW % of NT)” value in assay [1] (afb5‐1, foliar application) amounted to 0.6 g ai ha^−1; in assay [9] it was 0.08 g ai ha^−1. The “GR50 (visual injury)” value is recorded as 2.4 g ai ha^−1 in [1] (afb5‐1, foliar application) and 0.4 g ai ha^−1 in assay [9]. Also, the “Resistance ratio (afb5‐1 vs WT), DW” value in assay [1] is recorded as 7.5. For the same compound, in assay [1], the “Resistance ratio (afb5‐1 vs WT), visual injury” value amounted to 6. Also, the figures for the Kd on AtTIR1 [2] (setting [11]), at AtAFB5 [3] (setting [11]) and at AtAFB2 [4] (setting [11]) were 128 µM, 2.4 µM and 333 µM, respectively. In addition, in assay [5], the “Resistance of afb5‐1 in root growth inhibition (in words)” value is given as “considerable resistance”. In addition, the entries for the “% of IAA binding” value at AtAFB5 [6], at AtAFB2 [7] and at AtTIR1 [8] were 170%, under 5% and 10%, respectively.

Take `O=C(O)c1c(Cl)ccc2cc(Cl)cnc12` [Quinclorac]: the “Foliar phytotoxicity / resistance (in words)” value in assay [1] (afb5‐1, foliar application) is reported as “did not provide much phytotoxicity”. In addition, the “GR50 (DW % of NT)” value turned out to be 1002 g ai ha^−1 in assay [1] (afb5‐1, foliar application) and 1015 g ai ha^−1 in [9]. Moreover, in [1], the “Resistance ratio (afb5‐1 vs WT), DW” value is reported as 1. For the same compound, the “Primary root growth inhibition (in words)” value in assay [10] is on record as “very low root growth inhibition”. In [5], the “Resistance of afb5‐1 in root growth inhibition (in words)” value is “No resistance”. Besides, the “% of IAA binding” value at AtAFB5 [6], on AtAFB2 [7] and on AtTIR1 [8] was under 5% each time. Besides, the “Foliar phytotoxicity (in words)” value in assay [9] is “did not provide much phytotoxicity”.

Take `Nc1c(Cl)c(Cl)nc(C(=O)O)c1Cl` [Picloram]: the “GR50 (DW % of NT)” value in [1] (afb5‐1, foliar application) came out at 996 g ai ha^−1; in [9], 13.7 g ai ha^−1. For the same compound, in [1], the “Resistance ratio (afb5‐1 vs WT), DW” value is on record as 72.7. Also, the Kd on AtTIR1 [2] came out at 319 µM; at AtAFB5 [3], 107 µM. In addition, the “Primary root growth inhibition (in words)” value in assay [10] is given as “low level of phytotoxicity”. Moreover, the “Resistance of afb5‐1 in root growth inhibition (in words)” value in assay [5] is listed as “considerable resistance”. In addition, the “Relative binding (in words)” value on AtAFB5 [6] (compared to IAA), on AtAFB2 [7] (compared to IAA) and on AtTIR1 [8] (compared to IAA) was “relatively low binding” in each case. Besides, in assay [9], the “GR50 (visual injury)” value was determined as 202 g ai ha^−1.

These data come from article PMC10952535, “The differential binding and biological efficacy of auxin herbicides” (Pest Management Science, 2022).
